Source: publication PMC5635128 (Scientific Reports, 2017)

Key:
Assay in all cases: biochemical
Parameters in all cases: KINOMEscan competition binding assay, kinase captured on immobilized ligand, per cent of DMSO control
Conditions in all cases: read-out: % Ctrl
[1] = molecular target: T1, YANK3 (Homo sapiens, UniProt Q86UX6)
T1 construct: gene STK32C
Experimental: (§1) Competition binding assays were performed by DiscoverX (Freemont, CA, USA). […] S-Score^35 = (number of non-mutant kinases with %Ctrl < 35)/(number of non-mutant kinases tested). […] Kds are calculated […] by measuring the amount of kinase captured on the solid support as a function of the test compound concentration (n = 2, mean ± range).

[2] = molecular target: TLK2 (Homo sapiens, UniProt Q86UE8)
Experimental: as §1

[3] = molecular target: ZAP70 (Homo sapiens, UniProt P43403)
Experimental: as §1

[4] = molecular target: TNIK (Homo sapiens, UniProt Q9UKE5)
Experimental: as §1

[5] = molecular target: T2, TRKA (Homo sapiens, UniProt P04629)
T2 construct: gene NTRK1
Experimental: as §1

[6] = molecular target: TTK (Homo sapiens, UniProt P33981)
Experimental: as §1

[7] = molecular target: TNK1 (Homo sapiens, UniProt Q13470)
Experimental: as §1

[8] = molecular target: T3, VEGFR2 (Homo sapiens, UniProt P35968)
T3 construct: gene KDR
Experimental: as §1

[9] = molecular target: TSSK1B (Homo sapiens, UniProt Q9BXA7)
Experimental: as §1

[10] = molecular target: ULK1 (Homo sapiens, UniProt O75385)
Experimental: as §1

[11] = molecular target: T4, YANK1 (Homo sapiens, UniProt Q8WU08)
T4 construct: gene STK32A
Experimental: as §1

[12] = molecular target: T5, ZAK (Homo sapiens, UniProt Q9NYL2)
T5 construct: gene MAP3K20
Experimental: as §1

[13] = molecular target: TXK (Homo sapiens, UniProt P42681)
Experimental: as §1

[14] = molecular target: TLK1 (Homo sapiens, UniProt Q9UKI8)
Experimental: as §1

[15] = molecular target: TRPM6 (Homo sapiens, UniProt Q9BX84)
Experimental: as §1

[16] = molecular target: T6, YANK2 (Homo sapiens, UniProt Q9NY57)
T6 construct: gene STK32B
Experimental: as §1

[17] = molecular target: T7, YSK4 (Homo sapiens, UniProt Q56UN5)
T7 construct: gene MAP3K19
Experimental: as §1

[18] = molecular target: T8, TIE2 (Homo sapiens, UniProt Q02763)
T8 construct: gene TEK
Experimental: as §1

[19] = molecular target: TYRO3 (Homo sapiens, UniProt Q06418)
Experimental: as §1

[20] = molecular target: T9, YSK1 (Homo sapiens, UniProt O00506)
T9 construct: gene STK25
Experimental: as §1

[21] = molecular target: WNK3 (Homo sapiens, UniProt Q9BYP7)
Experimental: as §1

[22] = molecular target: WEE1 (Homo sapiens, UniProt P30291)
Experimental: as §1

[23] = molecular target: TNNI3K (Homo sapiens, UniProt Q59H18)
Experimental: as §1

[24] = molecular target: T10, TYK2(JH1domain-catalytic) (Homo sapiens, UniProt P29597)
T10 construct: JH1domain-catalytic
Experimental: as §1

[25] = molecular target: T11, TYK2(JH2domain-pseudokinase) (Homo sapiens, UniProt P29597)
T11 construct: JH2domain-pseudokinase
Experimental: as §1

[26] = molecular target: TNK2 (Homo sapiens, UniProt Q07912)
Experimental: as §1

[27] = molecular target: T12, TRKB (Homo sapiens, UniProt Q16620)
T12 construct: gene NTRK2
Experimental: as §1

[28] = molecular target: T13, TRKC (Homo sapiens, UniProt Q16288)
T13 construct: gene NTRK3
Experimental: as §1

[29] = molecular target: ULK3 (Homo sapiens, UniProt Q6PHR2)
Experimental: as §1

[30] = molecular target: ULK2 (Homo sapiens, UniProt Q8IYT8)
Experimental: as §1

[31] = molecular target: WEE2 (Homo sapiens, UniProt P0C1S8)
Experimental: as §1

[32] = molecular target: VRK2 (Homo sapiens, UniProt Q86Y07)
Experimental: as §1

[33] = molecular target: WNK1 (Homo sapiens, UniProt Q9H4A3)
Experimental: as §1

[34] = molecular target: T14, YES (Homo sapiens, UniProt P07947)
T14 construct: gene YES1
Experimental: as §1

T11 sequence (P29597 whole entry): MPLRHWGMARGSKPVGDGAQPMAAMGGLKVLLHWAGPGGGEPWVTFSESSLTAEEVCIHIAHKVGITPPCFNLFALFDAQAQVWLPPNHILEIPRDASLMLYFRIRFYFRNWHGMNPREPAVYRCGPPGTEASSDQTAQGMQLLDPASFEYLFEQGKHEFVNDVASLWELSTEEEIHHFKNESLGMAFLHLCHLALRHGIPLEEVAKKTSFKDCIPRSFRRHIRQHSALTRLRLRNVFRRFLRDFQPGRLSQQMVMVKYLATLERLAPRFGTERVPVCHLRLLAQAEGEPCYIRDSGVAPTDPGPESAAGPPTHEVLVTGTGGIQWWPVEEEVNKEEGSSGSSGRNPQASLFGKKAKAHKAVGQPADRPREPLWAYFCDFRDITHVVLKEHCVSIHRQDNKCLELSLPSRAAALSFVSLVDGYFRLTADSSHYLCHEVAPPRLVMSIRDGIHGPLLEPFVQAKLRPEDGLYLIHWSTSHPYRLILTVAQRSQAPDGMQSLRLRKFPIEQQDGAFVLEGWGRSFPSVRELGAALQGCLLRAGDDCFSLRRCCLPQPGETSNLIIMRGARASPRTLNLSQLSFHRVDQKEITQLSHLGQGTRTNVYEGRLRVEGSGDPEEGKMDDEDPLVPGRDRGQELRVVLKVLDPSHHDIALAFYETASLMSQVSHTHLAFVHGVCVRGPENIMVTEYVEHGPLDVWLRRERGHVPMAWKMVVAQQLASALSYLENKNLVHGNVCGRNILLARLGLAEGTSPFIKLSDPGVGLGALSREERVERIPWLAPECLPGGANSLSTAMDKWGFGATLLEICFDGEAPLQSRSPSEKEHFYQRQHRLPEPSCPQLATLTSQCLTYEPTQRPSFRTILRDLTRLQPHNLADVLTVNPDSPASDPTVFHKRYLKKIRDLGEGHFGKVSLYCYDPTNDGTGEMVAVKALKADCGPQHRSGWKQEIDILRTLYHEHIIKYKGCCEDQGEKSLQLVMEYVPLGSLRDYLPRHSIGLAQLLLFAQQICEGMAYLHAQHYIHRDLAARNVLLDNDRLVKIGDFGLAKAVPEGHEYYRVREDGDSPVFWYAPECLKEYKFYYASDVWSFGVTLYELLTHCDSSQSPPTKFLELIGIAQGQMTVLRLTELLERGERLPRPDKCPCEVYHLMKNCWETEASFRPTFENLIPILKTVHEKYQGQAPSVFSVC
T10 sequence (P29597 whole entry): as above
T7 sequence (Q56UN5 whole entry): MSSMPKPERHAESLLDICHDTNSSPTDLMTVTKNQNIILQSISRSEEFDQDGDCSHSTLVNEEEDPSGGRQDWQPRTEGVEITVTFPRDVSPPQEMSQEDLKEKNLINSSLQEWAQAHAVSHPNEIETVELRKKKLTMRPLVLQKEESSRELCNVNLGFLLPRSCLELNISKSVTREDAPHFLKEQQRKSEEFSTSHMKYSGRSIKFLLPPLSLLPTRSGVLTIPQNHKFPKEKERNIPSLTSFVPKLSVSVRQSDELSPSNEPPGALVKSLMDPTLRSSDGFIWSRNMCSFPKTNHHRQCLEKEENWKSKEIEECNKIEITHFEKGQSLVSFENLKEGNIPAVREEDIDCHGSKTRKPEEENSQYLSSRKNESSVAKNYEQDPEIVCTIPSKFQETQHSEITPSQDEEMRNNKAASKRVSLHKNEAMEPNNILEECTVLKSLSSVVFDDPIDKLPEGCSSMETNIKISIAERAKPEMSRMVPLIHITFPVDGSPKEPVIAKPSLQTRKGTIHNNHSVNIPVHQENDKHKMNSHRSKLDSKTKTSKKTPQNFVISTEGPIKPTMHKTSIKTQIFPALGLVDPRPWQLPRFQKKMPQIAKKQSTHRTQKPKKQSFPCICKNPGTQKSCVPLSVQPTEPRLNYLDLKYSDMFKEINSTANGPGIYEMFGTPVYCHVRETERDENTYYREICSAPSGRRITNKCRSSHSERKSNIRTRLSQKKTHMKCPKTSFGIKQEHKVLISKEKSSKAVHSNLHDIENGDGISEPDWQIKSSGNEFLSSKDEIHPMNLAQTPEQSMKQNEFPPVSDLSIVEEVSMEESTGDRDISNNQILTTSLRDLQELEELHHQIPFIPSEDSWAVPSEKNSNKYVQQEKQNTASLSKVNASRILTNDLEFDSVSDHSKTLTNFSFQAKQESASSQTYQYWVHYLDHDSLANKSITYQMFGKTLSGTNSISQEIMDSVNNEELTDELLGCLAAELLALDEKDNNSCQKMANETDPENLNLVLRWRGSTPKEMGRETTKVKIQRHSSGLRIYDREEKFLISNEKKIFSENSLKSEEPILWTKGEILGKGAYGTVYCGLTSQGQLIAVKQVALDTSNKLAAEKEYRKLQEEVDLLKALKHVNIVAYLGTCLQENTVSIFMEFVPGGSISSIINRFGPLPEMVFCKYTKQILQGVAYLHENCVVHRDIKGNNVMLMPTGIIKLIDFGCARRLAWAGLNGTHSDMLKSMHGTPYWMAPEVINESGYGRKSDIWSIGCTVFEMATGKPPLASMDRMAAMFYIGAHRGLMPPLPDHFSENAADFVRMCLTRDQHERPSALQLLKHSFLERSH
WNK3, sequence (Q9BYP7 whole entry): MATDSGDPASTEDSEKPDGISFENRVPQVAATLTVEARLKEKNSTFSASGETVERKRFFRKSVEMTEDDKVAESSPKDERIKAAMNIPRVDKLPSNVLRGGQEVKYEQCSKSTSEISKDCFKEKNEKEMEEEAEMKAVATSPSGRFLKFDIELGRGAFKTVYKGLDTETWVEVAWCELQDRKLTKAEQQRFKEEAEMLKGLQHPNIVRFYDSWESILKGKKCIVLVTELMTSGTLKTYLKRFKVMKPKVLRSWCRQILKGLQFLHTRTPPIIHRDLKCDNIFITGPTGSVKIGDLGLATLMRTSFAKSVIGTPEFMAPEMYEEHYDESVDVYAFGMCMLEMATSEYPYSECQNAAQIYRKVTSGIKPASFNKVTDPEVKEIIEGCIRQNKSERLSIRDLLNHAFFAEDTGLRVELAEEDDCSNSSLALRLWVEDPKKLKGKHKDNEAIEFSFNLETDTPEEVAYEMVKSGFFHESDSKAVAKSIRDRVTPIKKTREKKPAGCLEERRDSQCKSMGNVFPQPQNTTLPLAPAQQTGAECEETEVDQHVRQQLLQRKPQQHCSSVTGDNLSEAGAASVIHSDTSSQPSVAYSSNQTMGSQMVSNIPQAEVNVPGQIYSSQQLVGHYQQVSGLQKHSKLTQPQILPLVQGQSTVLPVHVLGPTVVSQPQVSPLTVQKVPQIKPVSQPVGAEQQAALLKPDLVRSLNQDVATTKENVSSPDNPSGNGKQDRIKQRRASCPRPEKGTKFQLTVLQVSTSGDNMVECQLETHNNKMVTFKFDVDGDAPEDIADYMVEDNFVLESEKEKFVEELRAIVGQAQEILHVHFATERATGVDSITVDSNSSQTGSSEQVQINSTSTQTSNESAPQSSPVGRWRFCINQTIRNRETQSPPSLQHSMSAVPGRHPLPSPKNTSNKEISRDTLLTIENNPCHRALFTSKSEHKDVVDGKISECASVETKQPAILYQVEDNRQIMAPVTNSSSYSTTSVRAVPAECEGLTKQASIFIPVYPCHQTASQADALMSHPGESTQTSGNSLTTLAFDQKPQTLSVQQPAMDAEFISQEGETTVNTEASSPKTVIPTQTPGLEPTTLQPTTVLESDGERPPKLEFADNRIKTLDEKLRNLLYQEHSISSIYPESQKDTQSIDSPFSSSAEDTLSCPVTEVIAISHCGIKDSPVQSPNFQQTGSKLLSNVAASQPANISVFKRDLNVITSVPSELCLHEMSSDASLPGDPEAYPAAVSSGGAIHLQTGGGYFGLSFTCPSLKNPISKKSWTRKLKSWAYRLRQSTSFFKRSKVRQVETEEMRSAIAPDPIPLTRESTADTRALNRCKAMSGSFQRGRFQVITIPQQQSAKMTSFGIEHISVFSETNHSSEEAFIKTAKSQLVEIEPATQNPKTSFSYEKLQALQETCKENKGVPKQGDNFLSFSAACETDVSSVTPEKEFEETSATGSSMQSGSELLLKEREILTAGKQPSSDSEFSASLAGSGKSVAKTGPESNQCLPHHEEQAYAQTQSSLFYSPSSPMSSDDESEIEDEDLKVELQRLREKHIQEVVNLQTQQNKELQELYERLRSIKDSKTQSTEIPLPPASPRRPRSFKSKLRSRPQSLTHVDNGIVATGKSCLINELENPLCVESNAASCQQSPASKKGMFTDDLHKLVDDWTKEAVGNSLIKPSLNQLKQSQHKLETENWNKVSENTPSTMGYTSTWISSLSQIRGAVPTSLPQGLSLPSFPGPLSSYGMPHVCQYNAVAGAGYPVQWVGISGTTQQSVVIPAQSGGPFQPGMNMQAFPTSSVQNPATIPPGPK
TLK2, sequence (Q86UE8 whole entry): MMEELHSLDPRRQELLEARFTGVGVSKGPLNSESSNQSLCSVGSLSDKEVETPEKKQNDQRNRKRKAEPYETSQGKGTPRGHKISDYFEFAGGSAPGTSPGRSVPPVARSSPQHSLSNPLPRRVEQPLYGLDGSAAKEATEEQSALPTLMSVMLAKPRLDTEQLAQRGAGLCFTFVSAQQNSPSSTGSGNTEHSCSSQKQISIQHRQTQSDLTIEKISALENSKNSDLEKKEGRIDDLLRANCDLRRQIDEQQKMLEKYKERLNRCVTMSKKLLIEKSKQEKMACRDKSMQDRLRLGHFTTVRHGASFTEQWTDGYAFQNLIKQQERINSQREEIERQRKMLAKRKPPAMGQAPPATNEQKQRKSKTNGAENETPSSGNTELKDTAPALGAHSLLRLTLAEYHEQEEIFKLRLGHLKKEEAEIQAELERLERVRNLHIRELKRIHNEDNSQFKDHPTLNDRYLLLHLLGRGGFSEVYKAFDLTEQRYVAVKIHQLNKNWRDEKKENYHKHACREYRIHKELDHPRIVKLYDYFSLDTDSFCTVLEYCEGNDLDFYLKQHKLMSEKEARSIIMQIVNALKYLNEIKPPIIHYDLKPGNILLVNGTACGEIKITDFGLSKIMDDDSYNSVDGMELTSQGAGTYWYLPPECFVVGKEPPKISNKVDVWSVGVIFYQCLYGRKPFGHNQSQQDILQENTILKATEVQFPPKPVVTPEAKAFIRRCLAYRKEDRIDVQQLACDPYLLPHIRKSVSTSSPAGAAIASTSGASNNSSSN

`COc1cc(O)c2c(c1)OC(O)(c1ccc(OCc3ccccc3)cc1)CC2=O` (stereo not shown) [6E11, 2-(4-(benzyloxy)phenyl)-2,5-dihydroxy-7-methoxychroman-4-one] showed a percent of control binding at 10 µM [1] of 72%, a percent of control binding at 10 µM [2] of 83% and a percent of control binding at 10 µM [3] of 100%. It also gave a percent of control binding at 10 µM [4] of 85%, a percent of control binding at 10 µM [5] of 93% and a percent of control binding at 10 µM [6] of 99%. For the same molecule, the percent of control binding at 10 µM [7] was 88%, the percent of control binding at 10 µM [8] was 82% and the percent of control binding at 10 µM [9] was 83%. The percent of control binding at 10 µM [10] was 79%, the percent of control binding at 10 µM [11] was 60% and the percent of control binding at 10 µM [12] was 100%. The percent of control binding at 10 µM [13] was 100%, the percent of control binding at 10 µM [14] was 100% and the percent of control binding at 10 µM [15] was 60%. The percent of control binding at 10 µM [16] was 84%, the percent of control binding at 10 µM [17] was 81% and the percent of control binding at 10 µM [18] was 100%. The percent of control binding at 10 µM [19] was 93%, the percent of control binding at 10 µM [20] was 88% and the percent of control binding at 10 µM [21] was 50%. The percent of control binding at 10 µM [22] was 82%, the percent of control binding at 10 µM [23] was 98% and the percent of control binding at 10 µM [24] was 97%. For the same molecule, the percent of control binding at 10 µM [25] was 86%, the percent of control binding at 10 µM [26] was 92% and the percent of control binding at 10 µM [27] was 100%. For the same molecule, the percent of control binding at 10 µM [28] was 100%, the percent of control binding at 10 µM [29] was 71% and the percent of control binding at 10 µM [30] was 98%. It also gave a percent of control binding at 10 µM [31] of 88%, a percent of control binding at 10 µM [32] of 58% and a percent of control binding at 10 µM [33] of 61%. For the same molecule, the percent of control binding at 10 µM [34] was 87%.
